Measurements as given in patent publication US8952024B2, “Herbicidal pyrimidone derivatives” (E I du Pont de Nemours and Company, priority 2009, dated 2015).

Assays:
Type in all cases: in vivo
[1] = tested on: chickweed (Stellaria media); experiment: Test B postemergence plant response; conditions: Postemergence; for Chickweed plant response rating: 250 g ai/ha, scale 0 to 100
How it was run: (§1)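 Visual ratings from 0 (no effect) to 100 (complete control), made against controls 13–15 days after treatment, kept in a greenhouse. Compounds were applied postemergence to potted plants at the 1- to 4-leaf stage (2–18 cm).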

[2] = tested on: windgrass (Apera spica-venti); experiment: Test B postemergence plant response; conditions: Postemergence, scale 0 (no effect) to 100 (complete control)
How it was run: as §1

[3] = tested on: canarygrass (Phalaris minor); experiment: Test B postemergence plant response; conditions: Postemergence; for Canarygrass plant response rating: 250 g ai/ha, scale 0 to 100
How it was run: as §1

[4] = tested on: ragweed (common ragweed, Ambrosia elatior); experiment: Test B pre-/postemergence plant response
Description: (§2) Seeds of plant species selected from blackgrass (Alopecurus myosuroides), downy bromegrass (Bromus tectorum), green foxtail (Setaria viridis), Italian ryegrass (Lolium multiflorum), wheat (Triticum aestivum), wild oat (Avena fatua), deadnettle (henbit deadnettle, Lamium amplexicaule), galium (catchweed bedstraw, Galium aparine), bermudagrass (Cynodon dactylon), Surinam grass (Brachiaria decumbens), cocklebur (Xanthium strumarium), corn (Zea mays), large crabgrass (Digitaria sanguinalis), woolly cupgrass (Eriochloa villosa), giant foxtail (Setaria faberii), goosegrass (Eleusine indica), johnsongrass (Sorghum halepense), kochia (Kochia scoparia), lambsquarters (Chenopodium album), morningglory (Ipomoea coccinea), nightshade (eastern black nightshade, Solanum ptycanthum), yellow nutsedge (Cyperus esculentus), pigweed (Amaranthus retroflexus), ragweed (common ragweed, Ambrosia elatior), Russian thistle (Salsola kali), soybean (Glycine max), sunflower (common oilseed sunflower, Helianthus annuus) and velvetleaf (Abutilon theophrasti) were planted into a blend of loam soil and sand and treated preemergence with test compounds formulated in a non-phytotoxic solvent mixture which included a surfactant.
(§3) At the same time, plants selected from these crop and weed species and also winter barley (Hordeum vulgare), canarygrass (Phalaris minor), chickweed (Stellaria media) and windgrass (Apera spica-venti) were planted in pots containing Redi-Earth® planting medium (Scotts Company, 14111 Scottslawn Road, Marysville, Ohio 43041) comprising spaghnum peat moss, vermiculite, wetting agent and starter nutrients and treated with postemergence applications of some of the test chemicals formulated in the same manner. Plants ranged in height from 2 to 18 cm (1- to 4-leaf stage) for postemergence treatments.
(§4) Treated plants and controls were maintained in a greenhouse for 13 to 15 days, after which time all treated plants were visually evaluated and compared to controls. Plant response ratings, summarized in Table B, are based on a scale of 0 to 100 where 0 is no effect and 100 is complete control. A dash (-) response means no test result.

[5] = tested on: goosegrass (Eleusine indica); experiment: Test B pre-/postemergence plant response
Description: as §2, §3, §4

[6] = tested on: velvetleaf (Abutilon theophrasti); experiment: Test B pre-/postemergence plant response
Description: as §2, §3, §4

[7] = tested on: pigweed (Amaranthus retroflexus); experiment: Test B pre-/postemergence plant response
Description: as §2, §3, §4

[8] = tested on: soybean (Glycine max); experiment: Test B pre-/postemergence plant response
Description: as §2, §3, §4

[9] = tested on: johnsongrass (Sorghum halepense); experiment: Test B pre-/postemergence plant response
Description: as §2, §3, §4

[10] = tested on: kochia (Kochia scoparia); experiment: Test B pre-/postemergence plant response; conditions: Postemergence; for Plant response rating, Kochia: scale 0 (no effect) to 100 (complete control); for Kochia plant response rating: 250 g ai/ha, scale 0 to 100
Description: as §2, §3, §4

[11] = tested on: wild oat (Avena fatua); experiment: Test B pre-/postemergence plant response
Description: as §2, §3, §4

[12] = tested on: wheat (Triticum aestivum); experiment: Test B pre-/postemergence plant response
Description: as §2, §3, §4

[13] = tested on: cocklebur (Xanthium strumarium); experiment: Test B pre-/postemergence plant response; conditions: Preemergence; for Cocklebur plant response rating: 125 g ai/ha
Description: as §2, §3, §4

[14] = 31 g ai/ha, scale 0 to 100 (0 no effect, 100 complete control)
[15] = 62 g ai/ha, scale 0 (no effect) to 100 (complete control), 13 to 15 days
[16] = 125 g ai/ha, visual rating after 13 to 15 days, scale 0 (no effect) to 100 (complete control)
[17] = 125 g ai/ha, visual rating after 13 to 15 days
[18] = 250 g ai/ha, Preemergence, 0 to 100 scale
[19] = Postemergence, 62 g ai/ha, scale 0 (no effect) to 100 (complete control), 13 to 15 days
[20] = Postemergence, 125 g ai/ha, visual rating after 13 to 15 days, scale 0 (no effect) to 100 (complete control)
[21] = Preemergence, 31 g ai/ha, scale 0 to 100 (0 no effect, 100 complete control)
[22] = Preemergence, 125 g ai/ha, 0 to 100 scale
[23] = Postemergence, 250 g ai/ha, scale 0 to 100
[24] = Preemergence, 62 g ai/ha, scale 0 to 100 (0 no effect, 100 complete control)

O=C1CCCC(O)=C1C(=O)c1cnc(-c2ccccc2)n(-c2cccc(Br)c2)c1=O [Compound 38]
75: Plant response rating, Soybean [8, 18] | Plant response rating, Johnsongrass [9, 19] | Plant response rating, Oat, Wild [11, 19]
100: Plant response rating, Chickweed [1, 16] | Chickweed plant response rating [1] | Plant response rating, Goosegrass [5, 18] | Goosegrass plant response rating [5, 22] | Plant response rating, Velvetleaf [6, 18] | Plant response rating, Velvetleaf [6, 19] | Plant response rating, Velvetleaf [6, 20] | Plant response rating, Pigweed [7, 18] | Plant response rating, Pigweed [7, 21] | Pigweed plant response rating [7, 22] | Johnsongrass plant response rating [9, 23] | Plant response rating, Kochia [10, 17] | Kochia plant response rating [10]
98: Velvetleaf plant response rating [6, 22] | Plant response rating, Pigweed [7, 19] | Plant response rating, Pigweed [7, 20]
85: Plant response rating, Chickweed [1, 14] | Plant response rating, Windgrass [2, 17] | Plant response rating, Goosegrass [5, 19] | Plant response rating, Soybean [8, 19] | Johnsongrass plant response rating [9, 22]
80: Plant response rating, Windgrass ([2]; 62 g ai/ha, 13 to 15 days) | Plant response rating, Ragweed [4, 19] | Plant response rating, Ragweed [4, 20] | Ragweed plant response rating [4, 22] | Plant response rating, Johnsongrass [9, 24] | Plant response rating, Kochia ([10]; 62 g ai/ha, 13 to 15 days) | Plant response rating, Oat, Wild [11, 20]
55: Plant response rating, Velvetleaf [6, 21]
0: Plant response rating, Soybean [8, 21] | Soybean plant response rating [8, 22] | Plant response rating, Oat, Wild [11, 21] | Oat, Wild plant response rating [11, 22] | Plant response rating, Wheat [12, 21] | Wheat plant response rating [12, 22] | Plant response rating, Cocklebur [13, 14]
95: Plant response rating, Ragweed [4, 18] | Goosegrass plant response rating [5, 23] | Plant response rating, Goosegrass [5, 21] | Plant response rating, Johnsongrass [9, 18] | Plant response rating, Johnsongrass [9, 20]
90: Plant response rating, Chickweed [1, 15] | Plant response rating, Goosegrass [5, 20] | Plant response rating, Soybean [8, 20] | Plant response rating, Cocklebur ([13]; 250 g ai/ha, 0 to 100 scale)
10: Plant response rating, Canarygrass [3, 14] | Plant response rating, Canarygrass [3, 15] | Plant response rating, Canarygrass [3, 16] | Plant response rating, Johnsongrass [9, 21] | Plant response rating, Cocklebur ([13]; 62 g ai/ha, scale 0 to 100 (0 no effect, 100 complete control))
20: Plant response rating, Oat, Wild [11, 18] | Plant response rating, Wheat [12, 19]
40: Plant response rating, Ragweed [4, 21] | Plant response rating, Wheat [12, 20]
5: Plant response rating, Wheat [12, 18]
45: Canarygrass plant response rating [3]
25: Cocklebur plant response rating ([13]; 0 to 100 scale)

Cc1c(Cl)cccc1-n1c(-c2ccccc2)ncc(C(=O)C2=C(O)CCCC2=O)c1=O [Compound 40]
95: Plant response rating, Ragweed [4, 18] | Plant response rating, Goosegrass [5, 20]
70: Plant response rating, Windgrass ([2]; 62 g ai/ha, 13 to 15 days) | Plant response rating, Soybean [8, 18]
65: Plant response rating, Cocklebur [13, 14]
80: Plant response rating, Windgrass [2, 17] | Plant response rating, Goosegrass [5, 21] | Plant response rating, Velvetleaf [6, 21] | Plant response rating, Johnsongrass [9, 24]
98: Plant response rating, Ragweed [4, 19] | Plant response rating, Ragweed [4, 20] | Goosegrass plant response rating [5, 23] | Plant response rating, Pigweed [7, 19] | Plant response rating, Pigweed [7, 21]
75: Plant response rating, Ragweed [4, 21] | Plant response rating, Johnsongrass [9, 20] | Kochia plant response rating [10]
35: Canarygrass plant response rating [3]
20: Plant response rating, Canarygrass [3, 14] | Plant response rating, Canarygrass [3, 15] | Soybean plant response rating [8, 22] | Plant response rating, Wheat [12, 19]
0: Plant response rating, Soybean [8, 21] | Plant response rating, Kochia ([10]; 62 g ai/ha, 13 to 15 days) | Plant response rating, Oat, Wild [11, 21] | Oat, Wild plant response rating [11, 22] | Plant response rating, Wheat [12, 21] | Wheat plant response rating [12, 22]
10: Plant response rating, Johnsongrass [9, 21] | Plant response rating, Kochia [10, 17]
100: Plant response rating, Chickweed [1, 14] | Plant response rating, Chickweed [1, 15] | Plant response rating, Chickweed [1, 16] | Chickweed plant response rating [1] | Plant response rating, Goosegrass [5, 18] | Goosegrass plant response rating [5, 22] | Plant response rating, Velvetleaf [6, 18] | Plant response rating, Velvetleaf [6, 19] | Plant response rating, Velvetleaf [6, 20] | Velvetleaf plant response rating [6, 22] | Plant response rating, Pigweed [7, 18] | Plant response rating, Pigweed [7, 20] | Pigweed plant response rating [7, 22] | Plant response rating, Soybean [8, 19] | Plant response rating, Soybean [8, 20] | Johnsongrass plant response rating [9, 23] | Plant response rating, Cocklebur ([13]; 250 g ai/ha, 0 to 100 scale)
90: Ragweed plant response rating [4, 22] | Plant response rating, Goosegrass [5, 19] | Plant response rating, Johnsongrass [9, 18] | Plant response rating, Oat, Wild [11, 20]
85: Johnsongrass plant response rating [9, 22] | Plant response rating, Oat, Wild [11, 19] | Cocklebur plant response rating ([13]; 0 to 100 scale)
30: Plant response rating, Canarygrass [3, 16] | Plant response rating, Oat, Wild [11, 18] | Plant response rating, Wheat [12, 20]
